{"source": "patent US11085022B2", "about": "(priority 2014, dated 2021)", "key": {"[1]": {"tested_on": "adjuvant arthritis model mice", "assay": "Osteoarthritis index score in adjuvant arthritis model mice", "format": "in vivo", "conditions": "15 mg/kg, 7 administrations; compared with the physiological saline group", "method": "(§1) Adjuvant arthritis mouse model: The BCG vaccine was inactivated for 1 hr in a water bath at 80° C., and ground and mixed fully with autoclaved paraffin, to prepare a 10 mg/ml complete Freund adjuvant (CFA). 0.1 ml CFA was intracutaneously injected into the metatarsal in the right rear foot of the mice for inflammation induction."}, "[2]": {"assay": "In-vivo distribution and paw targeting in adjuvant arthritis model mice", "conditions": "mouse; for concentration at 0.5 h / concentration at 1 h / concentration at 2 h / concentration at 4 h / concentration at 8 h / concentration at 12 h: 15 mg/kg, iv ibuprofen 15 mg/kg", "method": "as §1\n(§2) 72 mice with inflammation were randomized to 2 groups, each group having 36 animals. Before administration, the mice were fasted, but allowed to free access to water overnight. […] 0.167 h, 0.5 h, 1 h, 2 h, 4 h, 8 h, 12 h, 24 h, 48 h, 72 h, 96 h, and 120 h after administration, the eyeballs were removed to collect the blood, and then the mice were sacrificed. The heart, liver, spleen, kidney, and the metatarsal tissue in the right rear foot were removed, washed with physiological saline, and weighed after the residual physiological saline was aspirated off with filter paper.\n(§3) The tissue samples (heart, liver, spleen, kidney, and metatarsal in the right rear foot) from the mice with inflammation were weighed, placed in a blood collection tube, added with 2 mL physiological saline, and dispersed by a tissue homogenizer at a high speed, to give a tissue homogenate. 200 μL acetonitrile was added to 200 μL of each tissue homogenate, vortexed for 5 min, and centrifuged for 10 min at 10000×g.\nThe paw targeting efficiency (Te) refers to the ratio of AUCs of the same preparation in the inflammatory site, that is, the paw, and in other tissues. […] The larger the Te is, the higher the selectivity of the preparation for the non-specific inflammatory site (the metatarsal in the right rear foot) will be, as compared with the selectivity for other comparative tissues."}, "ear swelling model mice": {"tested_on": "ear swelling model mice", "assay": "Degree of ear swelling in ear swelling model mice", "format": "in vivo", "conditions": "15 mg/kg; compared with the physiological saline group; difference in the weight of the ears", "method": "48 inflammation model mice were randomized to 4 groups, each group having 12 animals. […] A control group having 12 mice with primary tumor was also set. […] All the animals were administered at days 1, 2, 3, 4, 6, 8, and 10 after surgery, and a total of 7 administrations were presented. Groups given with the neutrophil granulocytes of the same density and the physiological saline of the same volume were also set and used as a blank control. The mice were administrated for 3 consecutive days, and then sacrificed by cervical vertebra dislocation after the 3 administrations. Round specimens were punched from the same portion of the left and the right ears by a 7 mm punch and weighed on an analytical balance. The degree of ear swelling was indicated by the difference in the weight of the ears, and the anti-inflammatory effects of the drugs were compared, as shown in FIG. 15."}, "[3]": {"assay": "In-vivo distribution and ear targeting in ear swelling model mice", "conditions": "male, mouse, 15 mg/kg", "method": "Ear swelling mouse model: Round pieces of filter paper that were 7 mm in diameter and soaked with dimethyl benzene were tightly attached for 15 s to the right ears of clean-grade male mice weighed 18-22 g.\nas §2, with “ear tissues” for “the metatarsal tissue in the right rear foot”\nas §3, with “ear)” for “metatarsal in the right rear foot)”\nThe ear targeting efficiency (Te) refers to the ratio of AUCs of the same preparation in the ear and in other tissues. […]"}, "Streptococcus pneumoniae": {"tested_on": "Streptococcus pneumoniae", "assay": "Survival time of streptococcal pneumonia model mice", "format": "in vivo", "conditions": "10 mg/kg, 7 administrations", "method": "48 inflammation model mice were randomized to 4 groups, each group having 12 animals. […] All the animals were administered at days 1, 2, 3, 4, 6, 8, and 10 after surgery, and a total of 7 administrations were presented. Groups given with the neutrophil granulocytes of the same density and the physiological saline of the same volume were also set and used as a blank control."}}}
{"compound": "CC(C)Cc1ccc(C(C)C(=O)O)cc1", "note": "(centres unmarked) [ibuprofen]", "values": [{"measurement": "time at which the peak score occurs", "setting": "[1]", "value": "prolonged somewhat"}, {"measurement": "organ(s) with the largest distribution", "setting": "[2]", "value": "liver"}, {"measurement": "concentration at 0.5 h", "setting": "[2]; Distribution in Heart", "value": 6350, "unit": "ng/g"}, {"measurement": "concentration at 1 h", "setting": "[2]; Distribution in Heart", "value": 4240, "unit": "ng/g"}, {"measurement": "concentration at 2 h", "setting": "[2]; Distribution in Heart", "value": 2990, "unit": "ng/g"}, {"measurement": "concentration at 4 h", "setting": "[2]; Distribution in Heart", "value": 1870, "unit": "ng/g"}, {"measurement": "concentration at 8 h", "setting": "[2]; Distribution in Heart", "value": 550, "unit": "ng/g"}, {"measurement": "concentration at 12 h", "setting": "[2]; Distribution in Heart", "value": 340, "unit": "ng/g"}, {"measurement": "concentration at 0.5 h", "setting": "[2]; Distribution in Kidney", "value": 2790, "unit": "ng/g"}, {"measurement": "concentration at 1 h", "setting": "[2]; Distribution in Kidney", "value": 3900, "unit": "ng/g"}, {"measurement": "concentration at 2 h", "setting": "[2]; Distribution in Kidney", "value": 2680, "unit": "ng/g"}, {"measurement": "concentration at 4 h", "setting": "[2]; Distribution in Kidney", "value": 1910, "unit": "ng/g"}, {"measurement": "concentration at 8 h", "setting": "[2]; Distribution in Kidney", "value": 620, "unit": "ng/g"}, {"measurement": "concentration at 12 h", "setting": "[2]; Distribution in Kidney", "value": 450, "unit": "ng/g"}, {"measurement": "concentration at 0.5 h", "setting": "[2]; Distribution in Liver", "value": 11900, "unit": "ng/g"}, {"measurement": "concentration at 1 h", "setting": "[2]; Distribution in Liver", "value": 10000, "unit": "ng/g"}, {"measurement": "concentration at 2 h", "setting": "[2]; Distribution in Liver", "value": 8320, "unit": "ng/g"}, {"measurement": "concentration at 4 h", "setting": "[2]; Distribution in Liver", "value": 7370, "unit": "ng/g"}, {"measurement": "concentration at 8 h", "setting": "[2]; Distribution in Liver", "value": 6330, "unit": "ng/g"}, {"measurement": "concentration at 12 h", "setting": "[2]; Distribution in Liver", "value": 2000, "unit": "ng/g"}, {"measurement": "concentration at 0.5 h", "setting": "[2]; Distribution in Spleen", "value": 6010, "unit": "ng/g"}, {"measurement": "concentration at 1 h", "setting": "[2]; Distribution in Spleen", "value": 3990, "unit": "ng/g"}, {"measurement": "concentration at 2 h", "setting": "[2]; Distribution in Spleen", "value": 2420, "unit": "ng/g"}, {"measurement": "concentration at 4 h", "setting": "[2]; Distribution in Spleen", "value": 1980, "unit": "ng/g"}, {"measurement": "concentration at 8 h", "setting": "[2]; Distribution in Spleen", "value": 1210, "unit": "ng/g"}, {"measurement": "concentration at 12 h", "setting": "[2]; Distribution in Spleen", "value": 670, "unit": "ng/g"}, {"measurement": "concentration at 0.5 h", "setting": "[2]; Distribution in paw", "value": 430, "unit": "ng/g"}, {"measurement": "concentration at 1 h", "setting": "[2]; Distribution in paw", "value": 370, "unit": "ng/g"}, {"measurement": "concentration at 2 h", "setting": "[2]; Distribution in paw", "value": 210, "unit": "ng/g"}, {"measurement": "degree of ear swelling", "setting": "ear swelling model mice", "value": "no obvious improvement"}, {"measurement": "concentration at 1 h", "setting": "[3]", "value": 3990, "unit": "ng/g"}]}
{"compound": "C[C@H]1COc2c(N3CCN(C)CC3)c(F)cc3c(=O)c(C(=O)O)cn1c23", "note": "[levofloxacin]", "values": [{"measurement": "survival time", "setting": "Streptococcus pneumoniae", "value": "about 21 days"}]}
